The text below walks through data of patent US20080188498A1, “Pyridopyrimidinone compounds with antimalarial activity” (Radix Pharmaceuticals, Inc., priority 2007, published 2008).

For series [1], the system named is Plasmodium berghei KBG-173. Kind of series: Blood schizontocidal test, oral dosing, P. berghei in mice. To be noted: days 3-5 postinfection. It is filed as in vivo, mouse. Here is the method: Drugs were mixed in 0.5% hydroxycellulose 0.1% Tween 80 and administered orally b.i.d. on days 3, 4 and 5 postinfection. CD-1 male or female mice, 5 weeks of age, were infected with 5×10^4 parasitized erythrocytes of Plasmodium berghei KBG-173 mm strain. Blood films were taken on day +6 and weekly thereafter until day +60. Parasitemias were calculated and SD90 value (dose suppressing 90% of the parasites in treated groups compared with the infected non-treated controls) on day +6 postinfection. Mortality data was tabulated for 60 days at which time all mice surviving that were blood film negative were considered cured. […]

Series [2] has as its system P. berghei. Description: Suppressive blood schizontocidal test, single subcutaneous dose, P. berghei in mice. It is filed as in vivo, mouse. To be noted: 72 h after infection. The procedure:
Mice were treated with a single dose of the compound administered subcutaneously 72 h. after infection. Number of cures is the number of mice surviving, out of five, 60 days postinfection.

For series [3], the system named is Plasmodium berghei KBG-173. Description: Prophylactic test, oral, P. berghei in mice. In kind it is in vivo, mouse. From the text: Drugs were mixed in 0.5% hydroxycellulose 0.1% Tween 80 and administered orally b.i.d. either on day 5, 4, 3, 2, or 1 prior to the infection or 1 or 2 days postinfection. CD-I male or female mice, 5 weeks of age, were infected with 5×10^4 parasitized erythrocytes of Plasmodium berghei KBG-173 mm strain. Blood films were taken on day +6 and weekly thereafter until day+30. […]

Series [4] deals with mouse. The note with it: strong liver toxicity; cited from earlier work.
[5] abbreviates: oral dose 0.25 mg/kg/day (total dose 0.75 mg/kg).
Where [6] appears, read: oral dose 1.0 mg/kg/day (total dose 3.0 mg/kg).
Where [7] appears, read: oral dose 4.0 mg/kg/day (total dose 12 mg/kg).
Where [8] appears, read: oral dose 16 mg/kg/day (total dose 48 mg/kg).
Setting [9] is: oral dose 64 mg/kg/day (total dose 192 mg/kg).
The mark [10] stands for this setting: single subcutaneous dose 1 mg/kg.
Setting [11] is: single subcutaneous dose 2 mg/kg.
Setting [12] is: single subcutaneous dose 4 mg/kg.
Where [13] appears, read: single subcutaneous dose 8 mg/kg.
[14] abbreviates: single subcutaneous dose 16 mg/kg.
Setting [15] is: single subcutaneous dose 32 mg/kg.
The mark [16] stands for this setting: single subcutaneous dose 64 mg/kg.
[17] abbreviates: single subcutaneous dose 128 mg/kg.
Setting [18] is: single dose of 0.5 mg/kg, day of treatment 1.
[19] abbreviates: single dose of 0.5 mg/kg, day of treatment 2.
Where [20] appears, read: single dose of 0.5 mg/kg, day of treatment −1.
[21] abbreviates: single dose of 0.5 mg/kg, day of treatment −2.

As for `CCN(CC)CCCC(C)Nc1ccnc2cc(Cl)ccc12` (centres unmarked) [Chloroquine, reference compound], the “Mice surviving 60 days/Mice infected and treated” value is listed as 0/7 in series [1] (setting [5]); 0/7 in series [1] (setting [6]); 2/7 in series [1] (setting [7]); 4/7 in series [1] (setting [8]); 0/7 in series [1] (setting [9]).

For the compound `O=C(CC1NCCC1O)Cn1cnc2cccnc2c1=O` (centres unmarked) [Compound I, 3-[3-(3-Hydroxy-pyrrolidin-2-yl)-2-oxo-propyl]-3H-pyrido[3,2-d]pyrimidin-4-one], the “Mice surviving 60 days/Mice infected and treated” value is listed as 7/7 in series [1] (setting [5]); 7/7 in series [1] (setting [6]); 7/7 in series [1] (setting [7]); 7/7 in series [1] (setting [8]); 7/7 in series [1] (setting [9]); 4/5 in series [2] (setting [10]). In addition, the “Mice surviving 60 days/Mice infected and treated” value in series [2] (setting [11]), in series [2] (setting [12]), in series [2] (setting [13]), in series [2] (setting [14]), in series [2] (setting [15]) and in series [2] (setting [16]) was 5/5 in each case. For the same compound, the “Mice surviving 60 days/Mice infected and treated” value in series [2] (setting [17]) is listed as 5/5. Moreover, the “Mice surviving day 60/Mice infected and treated” value in series [3] (oral, day of treatment 1, dose 0.5 mg/kg) is 5/5; in series [3] (oral, day of treatment 1, dose 2 mg/kg) it was 5/5; in series [3] (oral, day of treatment 1, dose 8 mg/kg) it was 5/5; in series [3] (oral, day of treatment 1, dose 32 mg/kg), 5/5; in series [3] (oral, day of treatment 2, dose 0.5 mg/kg), 5/5; in series [3] (oral, day of treatment 2, dose 2 mg/kg), 5/5. Besides, the “Mice surviving day 60/Mice infected and treated” value in series [3] (oral, day of treatment 2, dose 8 mg/kg) was 5/5; in series [3] (oral, day of treatment 2, dose 32 mg/kg) it was 5/5; in series [3] (oral, day of treatment −1, dose 0.5 mg/kg), 5/5; in series [3] (oral, day of treatment −1, dose 2 mg/kg), 5/5; in series [3] (oral, day of treatment −1, dose 8 mg/kg), 5/5; in series [3] (oral, day of treatment −1, dose 32 mg/kg) it was 5/5. The “Mice surviving day 60/Mice infected and treated” value is given as 5/5 in series [3] (oral, day of treatment −2, dose 0.5 mg/kg); 5/5 in series [3] (oral, day of treatment −2, dose 2 mg/kg); 5/5 in series [3] (oral, day of treatment −2, dose 8 mg/kg); 5/5 in series [3] (oral, day of treatment −2, dose 32 mg/kg); 0/5 in series [3] (oral, day of treatment −3, dose 0.5 mg/kg); 5/5 in series [3] (oral, day of treatment −3, dose 2 mg/kg). Moreover, the “Mice surviving day 60/Mice infected and treated” value in series [3] (oral, day of treatment −3, dose 8 mg/kg) is 5/5; in series [3] (oral, day of treatment −3, dose 32 mg/kg), 5/5. In series [3] (single dose of 0.5 mg/kg within 2 days preinfection through 2 days post infection), the “Protection from malaria (oral prophylactic activity)” value is recorded as “completely protected from malaria”.

For `O=C(CC1NCCC1O)Cn1cnc2ccncc2c1=O` (centres unmarked) [Compound II, 3-[3-(3-Hydroxy-pyrrolidin-2-yl)-2-oxo-propyl]-3H-pyrido[4,3-d]pyrimidin-4-one], the “Mice surviving 60 days/Mice infected and treated” value in series [1] (setting [5]) is listed as 7/7; in series [1] (setting [6]) it was 7/7; in series [1] (setting [7]), 7/7; in series [1] (setting [8]), 7/7; in series [1] (setting [9]), 7/7; in series [2] (setting [10]), 4/5. Besides, the “Mice surviving 60 days/Mice infected and treated” value in series [2] (setting [11]), in series [2] (setting [12]), in series [2] (setting [13]), in series [2] (setting [14]), in series [2] (setting [15]) and in series [2] (setting [16]) was 5/5 throughout. In addition, the “Mice surviving 60 days/Mice infected and treated” value in series [2] (setting [17]) is reported as 5/5. For the same compound, the “Mice surviving day 60/Mice infected and treated” value in series [3] (setting [18]), in series [3] (setting [19]), in series [3] (setting [20]) and in series [3] (setting [21]) was 5/5 in each case.

As to `O=C(CC1NCCC1O)Cn1cnc2cccc(F)c2c1=O` (centres unmarked) [Compound III, 5-Fluoro-3-[3-(3-hydroxy-pyrrolidin-2-yl)-2-oxo-propyl]-3H-quinazolin-4-one], the “Mice surviving 60 days/Mice infected and treated” value in series [1] (setting [5]) was 5/7; in series [1] (setting [6]) it was 6/7; in series [1] (setting [7]), 7/7; in series [1] (setting [8]), 7/7; in series [1] (setting [9]), 7/7; in series [2] (setting [10]) it was 4/5. Also, the “Mice surviving 60 days/Mice infected and treated” value in series [2] (setting [11]), in series [2] (setting [12]), in series [2] (setting [13]), in series [2] (setting [14]), in series [2] (setting [15]) and in series [2] (setting [16]) was 5/5 throughout. For the same compound, in series [2] (setting [17]), the “Mice surviving 60 days/Mice infected and treated” value is 5/5. Besides, the “Mice surviving day 60/Mice infected and treated” value in series [3] (setting [18]), in series [3] (setting [19]), in series [3] (setting [20]) and in series [3] (setting [21]) was 5/5 each time.

`O=C(CC1NCCC1O)Cn1cnc2ccc(F)c(F)c2c1=O` (centres unmarked) [Compound IV, 5,6-Difluoro-3-[3-(3-hydroxy-pyrrolidin-2-yl)-2-oxo-propyl]-3H-quinazolin-4-one]: the “Mice surviving 60 days/Mice infected and treated” value in series [1] (setting [5]) is recorded as 6/7; in series [1] (setting [6]) it was 7/7; in series [1] (setting [7]), 7/7; in series [1] (setting [8]), 7/7; in series [1] (setting [9]), 7/7; in series [2] (setting [10]), 4/5. The “Mice surviving 60 days/Mice infected and treated” value in series [2] (setting [11]), in series [2] (setting [12]), in series [2] (setting [13]), in series [2] (setting [14]), in series [2] (setting [15]) and in series [2] (setting [16]) was 5/5 in each case. Also, in series [2] (setting [17]), the “Mice surviving 60 days/Mice infected and treated” value is listed as 5/5. Also, the “Mice surviving day 60/Mice infected and treated” value in series [3] (setting [18]), in series [3] (setting [19]), in series [3] (setting [20]) and in series [3] (setting [21]) was 5/5 throughout.

On to `O=C(CC1NCCC1O)Cn1cnc2cccc(C(F)(F)F)c2c1=O` (centres unmarked) [Compound V, 3-[3-(3-Hydroxy-pyrrolidin-2-yl)-2-oxo-propyl]-5-trifluoromethyl-3H-quinazolin-4-one], for which the “Mice surviving 60 days/Mice infected and treated” value in series [1] (setting [5]) was 7/7; in series [1] (setting [6]), 7/7; in series [1] (setting [7]) it was 7/7; in series [1] (setting [8]), 7/7; in series [1] (setting [9]), 7/7; in series [2] (setting [10]), 4/5. Moreover, the “Mice surviving 60 days/Mice infected and treated” value in series [2] (setting [11]), in series [2] (setting [12]), in series [2] (setting [13]), in series [2] (setting [14]), in series [2] (setting [15]) and in series [2] (setting [16]) was 5/5 each time. Further, the “Mice surviving 60 days/Mice infected and treated” value in series [2] (setting [17]) was 5/5. For the same compound, the “Mice surviving day 60/Mice infected and treated” value in series [3] (setting [18]), in series [3] (setting [19]), in series [3] (setting [20]) and in series [3] (setting [21]) was 5/5 throughout.

In the case of `O=C(C[C@H]1NCCC[C@@H]1O)Cn1cnc2ccccc2c1=O` [Febrifugine, reference compound], the “Mice surviving 60 days/Mice infected and treated” value is on record as 1/7 in series [1] (setting [5]); 2/7 in series [1] (setting [6]); 5/7 in series [1] (setting [7]); 0/7 in series [1] (setting [8]); 0/7 in series [1] (setting [9]). In series [4], the “Dosage at which mouse toxic death occurred” value is 10 mg/kg/day.
